This is an account of results in patent US12433836B2, “Parenterally administered immune enhancing drugs” (ARCUS BIOSCIENCES, INC., priority 2018, dated 2025).

Where two headings read alike, the source gives them in different places.

Data set [1] can be described thus: Pharmacokinetics in preclinical species, summary across species. The class given is in vivo, mice, rats, dogs, monkeys. The following applies: single IV dose; for clearance (CL), in words: all preclinical species; for half-life: both sexes, CD-1 (mouse), Sprague-Dawley (rat), beagle (dog), mouse, rat, dog, cynomolgus monkey, plasma, range over preclinical species, read-out: terminal half-lives; for volume of distribution at steady state, in words: mice, rats and monkeys. The procedure: Plasma samples were prepared by protein precipitation. […] The mixture was vortexed and then centrifuged.
Compound 1 and Compound 2 volume of distribution at steady (Vu) was low in mice, rats and monkeys, but moderate-to-high in dogs. The terminal half-lives (Ti2) of Compound 1 and Compound 2 ranged from 3.5 to 41 hours, and 6.5 to 34 hours, respectively.

Data set [2] in a line: Pharmacokinetics after single IV bolus dose in rats.
Description: (§1) At the designated time points, blood was collected into tubes containing potassium EDTA and stored on ice until processed by centrifugation. The resultant plasma was stored in a freezer maintained at approximately −80° C.
(§2) Plasma samples were prepared by protein precipitation. An aliquot of 30 to 50 μL sample was mixed with acetonitrile containing an internal standard. The mixture was vortexed and then centrifuged. The resultant supernatant was directly analyzed by a sensitive and specific analytical procedure. Analytes were separated by liquid chromatography (LC), and detected by tandem mass spectrometry (MS/MS). The lower limit of quantitation (LLOQ) was 1.0 to 5.0 ng/mL.
A short description of data set [3]: Pharmacokinetics after single IV bolus dose in monkeys.
Description: as §1, §2
Data set [4] can be described thus: Pharmacokinetics after single IV bolus dose in dogs. The following applies: for CL: Dog, single dose IV bolus, mean noncompartmental; for volume of distribution at steady state, in words: dogs, single IV dose; for Vd / half-life: male, beagle, dog, iv.
Description: as §1, §2
Data set [5] in a line: Pharmacokinetics after single IV bolus dose in mice.
Description: as §1, §2
The subject of data set [6] is squamous cell carcinoma of the head and neck. The following applies: recurrent or metastatic squamous cell carcinoma of the head and neck; cited from earlier work.
For another data set, the system named is bladder cancer. To be noted: cited from earlier work.
[7] abbreviates: Rat, single dose IV bolus, mean noncompartmental.
Where [8] appears, read: male, Sprague-Dawley, rat, plasma, iv.
[9] abbreviates: Monkey, single dose IV bolus, mean noncompartmental.
Setting [10] is: female, CD-1, mouse, in vivo, iv.
Setting [11] is: male, cynomolgus monkey, plasma, iv.
The mark [12] stands for this setting: female, CD-1, mouse, plasma, iv.

What is called Vd is the apparent volume that relates the amount in the body to the concentration in plasma or blood. A lower Vd goes with little distribution into tissue. As a reminder, the clearance is a measure of how efficiently the substance is removed, as volume per time. A low value points to a low capacity for elimination. In the case of `C[C@H](Nc1cc(Cl)nc2c1cnn2[C@@H]1O[C@H](COP(=O)(O)CP(=O)(O)O)[C@@H](O)[C@H]1O)c1ccc(F)cc1` [Compound 2], the “clearance (CL), in words” value in data set [1] is “low”. For the same compound, the half-life in data set [1] was 6.5 to 34 h; in data set [4] (in vivo) it was 15 h; in data set [5] (setting [10]) it was 6.5 h. For the same compound, the entries for the “volume of distribution at steady state, in words” value in data set [1] and in data set [4] were “low” and “moderate-to-high”, respectively. Further, the T1/2 is 9.6 h in data set [2] (setting [7]) and 34 h in data set [3] (setting [9]). Moreover, the Vd in data set [2] (male, Sprague-Dawley, rat, in vivo, iv) came to 0.12 L/kg; in data set [3] (male, cynomolgus monkey, in vivo, iv), 0.078 L/kg; in data set [4] (in vivo), 0.63 L/kg; in data set [5] (setting [10]) it was 0.11 L/kg. Also, the clearance in data set [2] (setting [8]) is 0.155 mL/min/kg; in data set [5] (setting [10]), 0.25 mL/min/kg. Moreover, the CL amounted to 0.0283 mL/min/kg in data set [3] (setting [9]) and 0.567 mL/min/kg in data set [4].
As for nivolumab: PD-1 blocking antibody, the “estimated 1-year survival rate versus standard chemotherapy” value in data set [6] is “more than two-fold higher”.
`C[C@H](Nc1cc(Cl)nc2c1cnn2[C@@H]1O[C@H](COP(=O)(O)CP(=O)(O)O)[C@@H](O)[C@H]1O)c1ccccc1F` [Compound 1]: in data set [1], the “clearance (CL), in words” value is “low”. Moreover, the half-life in data set [1] was 3.5 to 41 h; in data set [3] (setting [11]), 41 h; in data set [4] (plasma), 21 h; in data set [5] (setting [12]), 3.5 h. In addition, the “volume of distribution at steady state, in words” value is “low” in data set [1] and “moderate-to-high” in data set [4]. The CL in data set [2] (setting [7]) is 0.333 mL/min/kg; in data set [3] (setting [9]), 0.0417 mL/min/kg; in data set [4], 0.833 mL/min/kg; in data set [5] (Mouse, single dose IV bolus, mean noncompartmental), 0.417 mL/min/kg. Also, in data set [2] (setting [7]), the T1/2 amounted to 5.3 h. The Vd in data set [2] (setting [8]) is 0.12 L/kg; in data set [3] (setting [11]) it was 0.097 L/kg; in data set [4] (plasma), 1.3 L/kg; in data set [5] (setting [12]), 0.12 L/kg.
For “atezolizumab: the first approved anti-PD-L1 therapy”, the response rate with bladder cancer (all patients) is reported as 15%; in the data set with bladder cancer (patients with more PD-L1-positive immune cells) it was 27%.
